Experimental data as given in patent publication US6013626A (priority 1995, dated 2000).

Key:
[1] = test system: SKOV3 cells; experiment: Reversibility of inhibition of SKOV3 cell proliferation; assay type: cell-based, human; conditions: SKOV3 cells treated 24 hours with IC50 dose, then drug-free medium
Method: After 24 hours the cells were washed and incubated in drug-free medium for the time indicated. The cell density was determined by sulforhodamine B (SRB) staining as described in the Experimental Section, and is expressed as the mean ± sd adsorbance at 560 nm for triplicate samples in one of three experiments.

[2] = test system: A-10 rat aortic smooth muscle cells; assay type: cell-based
Method: A-10 cells were grown to near-confluency on glass coverslips in BME/10% FBS. Compounds in PBS were added to the indicated final concentrations and cells were incubated for an additional 24 hours. For the staining of microtubules and intermediate filaments, the cells were fixed with cold methanol and incubated with PBS containing 10% calf serum to block nonspecific binding sites. Cells were then incubated at 37° C. for 60 min with either monoclonal anti-β-tubulin or with monoclonal anti-vimentin at dilutions recommended by the manufacturer. Bound primary antibodies were subsequently visualized by a 45-minute incubation with fluorescein-conjugated rabbit antimouse IgG. The coverslips were mounted on microscope slides and the fluorescence patterns were examined and photographed using a Zeiss Photomicroscope I11 equipped with epifluoroescence optics for fluorescein. […] PBS containing 100 nM TRITC-phalloidin was then added and the mixture was allowed to incubate for 45 min at 37° C. The cells were washed rapidly three times with PBS before the coverslips were mounted and immediately photographed as described above.
After 24 hours, microtubules and vimentin intermediate filaments were visualized by indirect immunofluorescence and microfilaments were stained using TRITC-phalloidin. The morphological effects of each drug were examined.
After 24 hours, microtubule organization was examined by immunofluorescence as described above.
The cells were then washed and incubated in drug-free medium for periods of 1 hour or 24 hours.

CC[C@]1(O)C[C@@H]2CN(CCc3c([nH]c4ccccc34)[C@@](C(=O)OC)(c3cc4c(cc3OC)N(C)[C@H]3[C@@](O)(C(=O)OC)[C@H](OC(C)=O)[C@]5(CC)C=CCN6CC[C@]43[C@@H]65)C2)C1 [Vinblastine]
increase in cell number in the 24 hours following removal of the drug [1]: approximately 3 fold | effect on taxol-stabilized microtubules ([2]; A-10 cells pretreated 3 hours with 10 μM taxol, then 100 nM vinblastine or 10 nM cryptophycin compound, 24 hours): pretreatment with taxol prevented microtubule depolymerization | effect on vimentin intermediate filaments ([2]; A-10 cells, 24 hours, 100 nM vinblastine or 10 nM cryptophycin compounds): vimentin intermediate filaments collapsed | effect on microtubules ([2]; A-10 cells, 24 hours, 2 μM cytochalasin B, 100 nM vinblastine or 10 nM cryptophycin compounds): marked depletion of microtubles | reversibility of microtubule depolymerization after removal of compound ([2]; A-10 cells, 24 hr with 100 nM vinblastine or 10 nM cryptophycins, then drug-free medium 1 hour or 24 hours): complete morphological recovery by 24 hour
